Converted amounts (≈) assume the structure as drawn. Starred links: 1 amine or outer side, 2 acyl side, 3 side chain; linkers in the order of their positions; H or OH if unused. Positions of bridges follow the written chain, without caps; N, C: chain ends. Non-standard residues stand in square brackets, D forms with d. Residues, ends and D or L forms follow the SMILES beside them. X4 = CC(C)CCC=CCCC[C@H](CC(=O)[*:1])O[*:2]; X6 = CC(C)CCCCC=CC[C@H](CC(=O)[*:1])O[*:2]; X5 = CC(C)CCCCCCC[C@H](CC(=O)[*:1])O[*:2]; X3 = CC(C)CCCCC[C@H](CC(=O)[*:1])O[*:2]; X7 = CCCCCCC=CC[C@H](CC(=O)[*:1])O[*:2]; X2 = CCCCCCC[C@H](CC(=O)[*:1])O[*:2]; Val(3-OH) = CC(C)(O)[C@H](N)C(=O)O; X1 = C/C=C(/N[*:1])C(=O)[*:2]; Dab = NCC[C@H](N)C(=O)O; Dap = NC[C@H](N)C(=O)O
Columns and labels:
Test in all cases: MIC, broth micro-dilution, primary panel
[1] = system: P. aeruginosa LMG6395T; type: cell-based, Pseudomonas aeruginosa; settings: WT; for MIC: Pseudomonas aeruginosa, LMG6395T
Description: (§1) Isopedopeptin E (5): off-white solid; [α] D20 –36° (c 0.3 in methanol); UV (MeOH) λ max (log10 ε) 240 (3.8); 1H NMR (DMSO-d 6, 600 MHz), see Table S5; 13C NMR (DMSO-d 6, 150 MHz), see Table […]
(§2) Isopedopeptin F (6): off-white solid; [α] D20 –32° (c 0.05 in methanol); UV (MeOH) λ max (log10 ε) 240 (3.8); 1H NMR (DMSO-d 6, 600 MHz), see Table S6; 13C NMR (DMSO-d 6, 150 MHz), see Table […]
(§3) Isopedopeptin G (7): off-white solid; [α] D20 –49° (c 0.1 in methanol); UV (MeOH) λ max (log10 ε) 240 (4.0); 1H NMR (DMSO-d 6, 600 MHz), see Table S7; 13C NMR (DMSO-d 6, 150 MHz), see Table […]
(§4) Isopedopeptin H (8): off-white solid; [α] D20 –56° (c 0.2 in methanol); UV (MeOH) λ max (log10 ε) 240 (4.0); 1H NMR (DMSO-d 6, 600 MHz), see Table S8; 13C NMR (DMSO-d 6, 150 MHz), see Table […]
(§5) Minimal Inhibitory Concentration (MIC) against the primary panel of microorganisms.
(§6) The MIC for compounds 1–8 was measured by means of a broth micro-dilution method in 96-wells microtiter plates with the addition of E. coli LMG15862, LMG1041 T, E. cloacaeA. baumannii […]
(§7) H-29 and A. fumigatus J7, as test organisms. The test media were AM3 Broth (BD Difco Ltd) mixed with phosphate buffered saline (PBS, Amresco LLC, Solon, USA) in 1:4 ratio (E. coli, A. baumannii, E. cloacae, K. pneumoniae and P. aeruginosa), AM3 Broth mixed with PBS in 1:1 ratio (S. aureus), ME (A. fumigatus) and ISP2 (C. albicans). Prior to MIC determination, the cell concentration of tested bacterial/fungal pathogens was adjusted to ≅ 4 × 10^5 CFU/mL (acceptable range 2 – 6 × 10^5 CFU/mL). Cell concentration was confirmed by colony counting after diluting and plating the respective bacterial pathogen on VPA plates [VPA, 10 g Vegetable Peptone Broth (Oxoid Ltd., Basingstoke,UK), 15 g Bacto Agar (Difco Ltd, Tyrone) in 1 L deionised water] directly after each of MIC-tests. The cells of C. albicans were plated on ISP2 agar plates [ISP2, 15 g Bacto Agar (Difco Ltd) in 1 L deionised water] and respectively spores of A. fumigatus were plated on MEA plates.
(§8) Plates were, subsequently, incubated at 37 °C in the dark, and viable colonies counted after 16 to 24 h.
(§9) To estimate MIC values (concentration range between 0.05 and 50 µg/mL), solutions of the tested compounds (100, 10 and 1 and if needed 0.1 µg/mL in MeOH) were dispensed into wells of microtiter plate(s) and the solvent was evaporated in a fume-hood. Subsequently, suspensions of pathogen cells in the appropriate medium were dispensed to the wells of microtiter plates and the growth of pathogens were observed after 16 to 20 h of incubation at 37 °C in the dark. Positive controls were the respective pathogen cells suspended in untreated sterile media without addition of compounds(s) and negative controls were the media only. MIC values were defined as the lowest concentration of each compound with no visible growth of pathogen. All MIC tests were performed in triplicate and […]
(§10) MIC determination for compound 2 against an extended panel of bacterial strains.
(§11) Compound 2 was evaluated against a panel of Gram-negative bacteria (Hughes strain collection), including: A. baumannii ATCC 19606, wild-type; BM4454, multidrug-resistant clinical isolate; BM4652, efflux-defective derivative of BM4454; CH9622, colistin-resistant clinical isolate; E. coli ATCC 25922, wild-type; CH3130, efflux-defective ΔtolC mutant isogenic to ATCC 25922; D22, a drug-hypersensitive lpxC mutant of E. coli; CH3491, multidrug-resistant clinical isolate; CH9623 and CH9624, colistin-resistant clinical isolates carrying mcr-1; K. pneumoniae ATCC 13833, wild-type; […]
(§12) clinical isolate; CH9625 and CH9626, colistin-resistant clinical isolates; P. aeruginosa PAO1, wild-type; PAO750, efflux-defective mutant isogenic to PAO1. The in vitro antimicrobial activity of each compound was determined by measuring the MIC value using the broth micro-dilution technique in cation-adjusted Mueller-Hinton II broth (Becton-Dickinson, 212322) according to EUCAST and CLSI guidelines. Each compound prepared in MHII medium was dispensed into a 96-well round- […]

[2] = system: B. cereus CCUG7414T; type: cell-based; settings: Bacillus cereus
Description: as §1, §2, §3, §4, §5, §6, §7, §8, §9, §10, §11, §12

[3] = system: S. aureus LMG15975; type: cell-based; settings: Staphylococcus aureus, LMG15975 / MRSA
Description: as §1, §2, §3, §4, §5, §6, §7, §8, §9, §10, §11, §12

[4] = system: A. fumigatus J7; type: cell-based; settings: Aspergillus fumigatus
Description: as §1, §2, §3, §4, §5, §6, §7, §8, §9, §10, §11, §12

[5] = system: E. coli LMG15862; type: cell-based; settings: Escherichia coli, β-lactam.
Description: as §1, §2, §3, §4, §5, §6, §7, §8, §9, §10, §11, §12

[6] = system: E. cloacae LMG2783T; type: cell-based; settings: Enterobacter cloacae, WT
Description: as §1, §2, §3, §4, §5, §6, §7, §8, §9, §10, §11, §12

[7] = system: C. albicans H-29; type: cell-based; settings: Candida albicans, H29; WT
Description: as §1, §2, §3, §4, §5, §6, §7, §8, §9, §10, §11, §12

[8] = system: A. baumannii LMG1041T; type: cell-based; settings: Acinetobacter baumannii, WT
Description: as §1, §2, §3, §4, §5, §6, §7, §8, §9, §10, §11, §12

Row | Structure (SMILES) | MIC [1] [µg/mL] | MIC [2] [µg/mL] | MIC [3] [µg/mL] | MIC [4] [µg/mL] | MIC [5] [µg/mL] | MIC [6] [µg/mL] | MIC [7] [µg/mL] | MIC [8] [µg/mL] | MIC P. aeruginosa LMG6395T [1] [µg/mL]
1 | C/C=C1/NC(=O)[C@H](CCN)NC(=O)[C@H](CC(C)C)NC(=O)[C@H](CN)NC(=O)C[C@@H](CCCCCCCC(C)C)OC(=O)[C@H](CC(=O)O)NC(=O)[C@H](C(C)(C)O)NC(=O)[C@@H](Cc2ccccc2)NC(=O)[C@H](CN)NC(=O)[C@H]([C@@H](C)O)NC1=O [Compound 6, Isopedopeptin F] ([Dap]L[Dab][X1]T[Dap][dF][Val(3-OH)]D; linker N-C via X5) | 32 (≈ 27.6 µM) | 32 (≈ 27.6 µM) | 32 (≈ 27.6 µM) | > 32 | 16 (≈ 13.8 µM) | 32 (≈ 27.6 µM) | > 32 | 16 (≈ 13.8 µM) | 
2 | C/C=C1/NC(=O)[C@H](CCN)NC(=O)[C@H](CC(C)C)NC(=O)[C@H](CN)NC(=O)C[C@@H](CC=CCCCCCC)OC(=O)[C@H](CC(=O)O)NC(=O)[C@H](C(C)(C)O)NC(=O)[C@@H](Cc2ccccc2)NC(=O)[C@H](CN)NC(=O)[C@H]([C@@H](C)O)NC1=O [Compound 3, isopedopeptin C] ([Dap]L[Dab][X1]T[Dap][dF][Val(3-OH)]D; linker N-C via X7) | 32 (≈ 28 µM) | 32 (≈ 28 µM) | > 32 | > 32 | 16 (≈ 14 µM) | 32 (≈ 28 µM) | 32 (≈ 28 µM) | 16 (≈ 14 µM) | 
3 | C/C=C1/NC(=O)[C@H](CCN)NC(=O)[C@H](CC(C)C)NC(=O)[C@H](CN)NC(=O)C[C@@H](CCCCCCC)OC(=O)[C@H](CC(=O)O)NC(=O)[C@H](C(C)(C)O)NC(=O)[C@@H](Cc2ccccc2)NC(=O)[C@H](CN)NC(=O)[C@H]([C@@H](C)O)NC1=O [Compound 2, isopedopeptin B] ([Dap]L[Dab][X1]T[Dap][dF][Val(3-OH)]D; linker N-C via X2) | 8 to 16 (≈ 7.16 to 14.3 µM) | > 32 | 32 (≈ 28.6 µM) | > 32 | 8 (≈ 7.16 µM) | 32 (≈ 28.6 µM) | 32 (≈ 28.6 µM) | 8 (≈ 7.16 µM) | 16 (≈ 14.3 µM)
4 | C/C=C1/NC(=O)[C@H](CCN)NC(=O)[C@H](CC(C)C)NC(=O)[C@H](CN)NC(=O)C[C@@H](CCCC=CCCC(C)C)OC(=O)[C@H](CC(=O)O)NC(=O)[C@H](C(C)C)NC(=O)[C@@H](Cc2ccccc2)NC(=O)[C@H](CN)NC(=O)[C@H]([C@@H](C)O)NC1=O [Compound 7, Isopedopeptin G] ([Dap]L[Dab][X1]T[Dap][dF]VD; linker N-C via X4) | 8 to 16 (≈ 7.01 to 14 µM) | 16 (≈ 14 µM) | 16 (≈ 14 µM) | > 32 | 8 (≈ 7.01 µM) | 16 (≈ 14 µM) | > 32 | 8 (≈ 7.01 µM) | 8 (≈ 7.01 µM)
5 | C/C=C1/NC(=O)[C@H](CCN)NC(=O)[C@H](CC(C)C)NC(=O)[C@H](CN)NC(=O)C[C@@H](CC=CCCCCC(C)C)OC(=O)[C@H](CC(=O)O)NC(=O)[C@H](C(C)C)NC(=O)[C@@H](Cc2ccccc2)NC(=O)[C@H](CN)NC(=O)[C@H]([C@@H](C)O)NC1=O [Compound 8, Isopedopeptin H] ([Dap]L[Dab][X1]T[Dap][dF]VD; linker N-C via X6) | 16 (≈ 14 µM) | 32 (≈ 28 µM) | 16 (≈ 14 µM) | > 32 | 16 (≈ 14 µM) | 16 (≈ 14 µM) | > 32 | 16 (≈ 14 µM) | 
6 | C/C=C1/NC(=O)[C@H](CCN)NC(=O)[C@H](CC(C)C)NC(=O)[C@H](CN)NC(=O)C[C@@H](CCCCCCC)OC(=O)[C@H](CC(=O)O)NC(=O)[C@H](C(C)C)NC(=O)[C@@H](Cc2ccccc2)NC(=O)[C@H](CN)NC(=O)[C@H]([C@@H](C)O)NC1=O [Compound 4, isopedopeptin D] ([Dap]L[Dab][X1]T[Dap][dF]VD; linker N-C via X2) | > 32 | 32 (≈ 29.1 µM) | > 32 | > 32 | 32 (≈ 29.1 µM) | 32 (≈ 29.1 µM) | > 32 | 16 (≈ 14.5 µM) | 
7 | C/C=C1/NC(=O)[C@H](CCN)NC(=O)[C@H](CC(C)C)NC(=O)[C@H](CN)NC(=O)C[C@@H](CCCCCC(C)C)OC(=O)[C@H](CC(=O)O)NC(=O)[C@H](C(C)(C)O)NC(=O)[C@@H](Cc2ccccc2)NC(=O)[C@H](CN)NC(=O)[C@H]([C@@H](C)O)NC1=O [Compound 1, cyclo(3-hydroxy-9-methyldecanoyl-DAPA1-Leu-DABA-ABA-Thr-DAPA2-Phe-OHVal-Asp)] ([Dap]L[Dab][X1]T[Dap][dF][Val(3-OH)]D; linker N-C via X3) | 8 to 16 (≈ 7.07 to 14.1 µM) | > 32 | > 32 | > 32 | 4 (≈ 3.54 µM) | 16 (≈ 14.1 µM) | 32 (≈ 28.3 µM) | 4 (≈ 3.54 µM) | 16 (≈ 14.1 µM)
8 | C/C=C1/NC(=O)[C@H](CCN)NC(=O)[C@H](CC(C)C)NC(=O)[C@H](CN)NC(=O)C[C@@H](CCCCCC(C)C)OC(=O)[C@H](CC(=O)O)NC(=O)[C@H](C(C)C)NC(=O)[C@@H](Cc2ccccc2)NC(=O)[C@H](CN)NC(=O)[C@H]([C@@H](C)O)NC1=O [Compound 5, Isopedopeptin E] ([Dap]L[Dab][X1]T[Dap][dF]VD; linker N-C via X3) | 32 (≈ 28.7 µM) | 16 (≈ 14.3 µM) | > 32 | > 32 | > 32 | > 32 | > 32 | 32 (≈ 28.7 µM) | 

Source: article PMC7684578, “Isopedopeptins A–H: Cationic Cyclic Lipodepsipeptides from Pedobacter cryoconitis UP508 Targeting WHO Top-Priority Carbapenem-Resistant Bacteria” (ACS Chemical Biology, 2020)
